Values quoted from earlier work, collected in patent publication US20110129510A1, “FIBROUS SURFACE STRUCTURE CONTAINING ACTIVE INGREDIENTS WITH CONTROLLED RELEASE OF ACTIVE INGREDIENTS, USE THEREOF AND METHOD FOR THE PRODUCTION THEREOF” (BASF SE, priority 2008, published 2011).
Converted amounts (≈) assume the structure as drawn. Like-named read-outs stand apart in the source and are kept apart here.

Row | Solubility in water (25° C.) [µg/mL] | SMILES | other results
1 | 0.03685 (≈ 0.104 µM) | COC1=CC(=O)C[C@@H](C)[C@]12Oc1c(Cl)c(OC)cc(OC)c1C2=O [Griseofulvin] | 
2 | 14 (≈ 39.1 µM) | COc1ccc2c(c1)c(CC(=O)O)c(C)n2C(=O)c1ccc(Cl)cc1 [Indomethacin] | 

Continued, compound first:

Row | SMILES | Solubility in water (25° C.) [µg/mL] | other results
3 | CC(=O)N1CCN(c2ccc(OCC3COC(Cn4ccnc4)(c4ccc(Cl)cc4Cl)O3)cc2)CC1 (stereo not drawn) [Ketoconazole] |  | Solubility in water (37° C.): 80 µg/mL (≈ 151 µM)
4 | Clc1ccccc1C(c1ccccc1)(c1ccccc1)n1ccnc1 [Clotrimazole] | <10 | 
5 | NC(=O)N1c2ccccc2C=Cc2ccccc21 [Carbamazipine] |  | Solubility in water (RT): 945.1 µg/mL (≈ 4000 µM)
6 | CCOC(=O)C1=C(C)NC(C)=C(C(=O)OC)C1c1cccc(Cl)c1Cl (stereo not drawn) [Felodipine] |  | Solubility in water (22° C.): 4.53 µg/mL (≈ 11.8 µM)
